Test results reported in paper PMC8904520, “Characterization of a small-molecule inhibitor targeting NEMO/IKKβ to suppress colorectal cancer growth” (Signal Transduction and Targeted Therapy, 2022).
Like-named read-outs stand apart in the source and are kept apart here.

Assays:
[1] = system: NF-κB luciferase activity in LoVo cells; test: NF-κB dual-luciferase reporter assay; format: cell-based, human; conditions: 0.5 and 1 µM, 48 h
Description: LoVo cells in a 6-well plate were transfected with the pNFκB-luc plasmid (Beyotime), which contains the luciferase coding region downstream of an NFκB-responsive promoter, using Lipofectamine 2000 Reagent (Invitrogen, Grand Island, NY, USA). After transfection, the cells were treated with SHK (0.5 and 1µM) for 48 h. The dual-luciferase reporter assay system (Promega, Madison, WI) was used to measure the changes of luciferase activity in the cell lysates. The firefly luciferase activities were normalized to the corresponding Renilla luciferase activities. All values are shown as means ± SD of triplicate experiments.

MBP-IKKβ (701–745) = molecular target: T1, MBP-IKKβ (701–745) (Homo sapiens, UniProt O14920); test: SPR affinity assay on immobilized MBP-IKKβ; format: binding
T1 construct: made in house; host or cells: E. coli BL21(DE3)
T1 sequence (O14920 701-745): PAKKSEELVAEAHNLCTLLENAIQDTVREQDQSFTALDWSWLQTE
Description: The sensor surface was activated with a 7 min injection of a mixture comprising 50 mM N-hydroxysuccinimide (NHS) and 200 mM 1-ethyl-3-(3- dimethylaminopropyl) carbodiimide (EDC). Then, 33 μg/mL of IKKβ was injected to reach the target level of 500 RU and the surface was blocked with 1 M ethanolamine, pH 8.5. A series of concentrations of NEMO or SHK were injected into the flow system and analyzed for 90 or 120 s, followed by dissociation for 90 or 600 s. All binding analyses was performed in phosphate-buffered saline (PBS, pH 7.4) with 0.05% (v/v) Tween-20 at 25 °C. Prior to analysis, double reference subtractions were made to eliminate bulk refractive index changes, injection noise, and data drift. The binding affinity was determined by fitting to a Langmuir 1:1 binding model in the Biacore Evaluation software (GE Healthcare).

LoVo xenograft tumor = LoVo xenograft tumor model; format: in vivo, athymic nude mice; conditions: mice
Description: Female athymic nude mice aged 5 weeks were purchased from Beijing Vital River Laboratory Animal Technology Co., Ltd., and kept in the SPF Laboratory Animal Center of Dalian Medical University (Dalian, China). All animals were given free access to sterilized food and water and were habituated for 7 days before the experiments. All procedures were carried out in strict accordance with the recommendations established by the Animal Care and Ethics Committee of Dalian Medical University as well as the guidelines promulgated in the U.S. National Institutes of Health Guide for the Care and Use of Laboratory Animals. LoVo cells (LoVo/wt and LoVo/ mut, 5×10^6 in 100 μL PBS) were injected subcutaneously near the axillary fossa of each nude mouse. Two weeks later, when the formed tumor reached 3-4mm, the animals were divided randomly into three groups with 5 mice in each group. […] The tumors were measured with a caliper once every two days, and the tumor volume was calculated using the formula V = 1/2 (width^2 × length). The body weight of the animals was also recorded. After treatment with SHK for 15 days, all experimental mice were sacrificed and the tumors from each mouse were excised and their weight was measured. To determine the expression of the indicated proteins, the tumor tissues were fixed with 10% neutral formalin and embedded in paraffin. Then, 4 μm sections were stained with hematoxylin and eosin, in combination with specific antibodies (iNOS (1:100), COX-2 (1:50), IL-6 (1:100)), and TNFα (1:200)). The stained samples were examined under a Leica DM 4000B fluorescence microscope equipped with a digital camera. The other parts of the tumors were used to prepare tumor tissue lysates for western blot analysis.

[2] = system: COX-2, iNOS, IL-6, TNF-α in LoVo and RKO cells; test: Expression of inflammatory markers by qPCR and western blotting; format: cell-based, human
Description: Protein lysates were separated by electrophoresis in a 10% acrylamide sodium dodecyl sulfate-polyacrylamide minigel (SDS-PAGE), electrophoretically transferred to a PVDF membrane, and immunoblotted with specific antibodies. The protein bands were detected by enhanced chemiluminescence. The protein concentrations were determined using a BCA protein assay kit (Beyotime Biotechnology, China). The experiments were carried out at least three times.

IKKβ = molecular target: T2, IKKβ (Homo sapiens, UniProt O14920); test: IKKβ kinase activity in LoVo cells (spectrophotometric kit); format: cell-based
T2 construct: endogenous in cells; host or cells: LoVo cells
T2 sequence (Q9Y6K9 whole entry partner): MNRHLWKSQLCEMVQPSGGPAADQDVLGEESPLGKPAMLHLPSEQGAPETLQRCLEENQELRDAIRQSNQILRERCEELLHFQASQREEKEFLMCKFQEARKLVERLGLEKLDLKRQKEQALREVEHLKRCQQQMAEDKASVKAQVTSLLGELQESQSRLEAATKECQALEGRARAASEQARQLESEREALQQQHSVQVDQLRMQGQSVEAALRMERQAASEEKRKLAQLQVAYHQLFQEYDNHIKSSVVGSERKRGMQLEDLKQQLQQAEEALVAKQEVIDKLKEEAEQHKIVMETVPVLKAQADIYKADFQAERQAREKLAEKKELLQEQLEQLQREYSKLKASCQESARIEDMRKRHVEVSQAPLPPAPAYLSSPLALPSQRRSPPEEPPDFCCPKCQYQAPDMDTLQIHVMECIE
T2 sequence (O14920 whole entry): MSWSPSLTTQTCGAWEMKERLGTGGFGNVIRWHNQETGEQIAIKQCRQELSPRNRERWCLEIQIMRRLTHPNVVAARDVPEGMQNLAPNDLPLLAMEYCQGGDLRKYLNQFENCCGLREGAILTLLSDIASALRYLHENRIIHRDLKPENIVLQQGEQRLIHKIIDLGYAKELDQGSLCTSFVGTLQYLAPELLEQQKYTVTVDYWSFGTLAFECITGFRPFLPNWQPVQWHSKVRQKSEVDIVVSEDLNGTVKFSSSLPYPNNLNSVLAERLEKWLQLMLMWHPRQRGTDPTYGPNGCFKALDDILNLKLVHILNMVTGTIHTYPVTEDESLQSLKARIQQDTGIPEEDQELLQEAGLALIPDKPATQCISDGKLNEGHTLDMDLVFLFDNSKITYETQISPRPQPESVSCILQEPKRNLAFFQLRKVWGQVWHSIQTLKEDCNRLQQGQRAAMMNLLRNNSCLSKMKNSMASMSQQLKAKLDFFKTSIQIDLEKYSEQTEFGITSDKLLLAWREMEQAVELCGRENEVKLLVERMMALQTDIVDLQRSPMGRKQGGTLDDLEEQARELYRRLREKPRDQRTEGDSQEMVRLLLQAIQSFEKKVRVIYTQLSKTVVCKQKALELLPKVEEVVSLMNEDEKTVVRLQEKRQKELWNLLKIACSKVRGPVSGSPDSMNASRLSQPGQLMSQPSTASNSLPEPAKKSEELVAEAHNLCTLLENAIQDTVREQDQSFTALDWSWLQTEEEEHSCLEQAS
Description: Fig. 3 Effect of SHK on NEMO/IKKβ/NF-κB signaling. a The protein levels of NEMO, p-IKKβ/IKKβ, and p-IκBα/IκBα in LoVo cells treated with the indicated doses of SHK were analyzed by western blotting. b The protein levels of NEMO, p-IKKβ/IKKβ, p-IκBα/IκBα protein in tumor tissues were analyzed by western blotting. c LoVo cells were co-transfected with pNFκB-luc containing a Renilla luciferase reporter (as internal control) for 24 h and then treated with SHK for 48 h. Luciferase activity was determined using a dual-luciferase reporter assay system. d The IKKβ kinase activity was assessed using a spectrophotometric quantitative detection kit in LoVo cells. The relative activity was calculated using the provided formula. e The subcellular localizations of p50/p65 in LoVo cells following 48 h of treatment with SHK was examined by confocal microscopy analysis. The protein levels of p65 and p50 in nucleus (f) and whole-cell lysates (g) were measured by western blot analysis. Lamin B1 and β-actin were used as controls for sample loading. h The binding of p65 and p50 to a COX-2 promoter probe was analyzed using a streptavidin-agarose pull-down assay. The data are presented as the means ± SD of at least three separate experiments. (*p < 0.05, **p < 0.01, SHK treatment group vs. vehicle control group)

CC(C)=CC[C@@H](O)C1=CC(=O)c2c(O)ccc(O)c2C1=O [SHK, Shikonin] was tested, and the NF-κB luciferase activity [1] was “significant inhibition”, the Kd (MBP-IKKβ (701–745); KD for MBP-IKKβ (701–745), SPR) was 8.19 ± 1.92 µM and the Kd (MBP-IKKβ (701–745); approximate summary value in discussion (SPR and MST), read-out: KD for either IKKβ or NEMO alone) was roughly 10 µM. The tumor volume (LoVo xenograft tumor; 2.5 and 5 mg/kg daily) was “dramatically decreased”, the tumor weight (LoVo xenograft tumor; 2.5 and 5 mg/kg daily) was “dramatically decreased” and the “side effects (body weight)” value (LoVo xenograft tumor; 2.5 and 5 mg/kg) was “slight side effects”. The “expression of inflammatory markers COX-2, iNOS, IL-6, TNF-α” value [2] was “suppressed the expression of inflammatory markers” and the “phosphorylation and kinase activity of IKKβ” value (IKKβ) was “suppressed the phosphorylation and kinase activity of IKKβ in a dose-dependent manner”.
